The assay has as its system P388 leukemia ip, CD2F1 mice, survival T/C. In words: NCI In Vivo Anticancer Drug Screen. Data for tumor model P388 Leukemia (intraperitoneal) in CD2F1 (CDF1) mice. To be noted: endpoint: median survival time, higher = longer survival. The method in brief: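 Mice carrying the transplanted tumor received test compound or vehicle. Survival was recorded in each group, and the value is the treated-group measurement divided by that of the vehicle-treated control group.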

Where [1] appears, read: dose: 60.0 mg/kg/injection, schedule: Q01DX005 (ip), vehicle: saline with Tween-80.
The mark [2] stands for this setting: dose: 120.0 mg/kg/injection, schedule: Q01DX005 (ip), vehicle: saline with Tween-80.
Where [3] appears, read: dose: 240.0 mg/kg/injection, schedule: Q01DX005 (ip), vehicle: saline with Tween-80.
Setting [4] is: dose: 50.0 mg/kg/injection, schedule: Q01DX009 (ip), vehicle: saline with Tween-80.
[5] abbreviates: dose: 100.0 mg/kg/injection, schedule: Q01DX009 (ip), vehicle: saline with Tween-80.

Molecules are shown by their SMILES. Several values for one entry are separate records, joined by “and”; a condition that tells them apart may be missing. Identical values can stand only once. Inconclusive results and toxic doses are left out.

In PubChem BioAssay AID330 (DTP/NCI, 2004) one finds T/C data, which are given here for 19 molecules.

Turning to `O=C(N/N=C/c1ccc(O)cc1O)c1cccnc1`, the T/C by setting is: (dose: 12.5 mg/kg/injection, schedule: Q01DX009 (ip), vehicle: olive oil, sesame oil, peanut oil) 106 % of control; (dose: 25.0 mg/kg/injection, schedule: Q01DX009 (ip), vehicle: olive oil, sesame oil, peanut oil) 105 % of control; (dose: 50.0 mg/kg/injection, schedule: Q01DX009 (ip), vehicle: olive oil, sesame oil, peanut oil) 121 % of control; (dose: 50.0 mg/kg/injection, schedule: Q01DX009 (oral), vehicle: saline with Tween-80) 108 % of control; (dose: 100.0 mg/kg/injection, schedule: Q01DX009 (ip), vehicle: olive oil, sesame oil, peanut oil) 102 % of control; (dose: 100.0 mg/kg/injection, schedule: Q01DX009 (oral), vehicle: saline with Tween-80) 108 % of control. The T/C (dose: 200.0 mg/kg/injection, schedule: Q01DX009 (oral), vehicle: saline with Tween-80) is 101 % of control and the T/C (dose: 400.0 mg/kg/injection, schedule: Q01DX009 (oral), vehicle: saline with Tween-80) was 105 % of control.
On to `COc1ccccc1[N+]([O-])=NC#N`, for which the T/C is 107 % of control (dose: 6.25 mg/kg/injection, schedule: Q04DX003 (ip), vehicle: Klucel (hydroxypropylcellulose) (HPC)); 111 % of control (dose: 12.5 mg/kg/injection, schedule: Q04DX003 (ip), vehicle: Klucel (hydroxypropylcellulose) (HPC)); 99 % of control (dose: 25.0 mg/kg/injection, schedule: Q04DX003 (ip), vehicle: Klucel (hydroxypropylcellulose) (HPC)).
Regarding `COC(=O)c1cc2c(nn1)C(=O)Nc1ccccc1C2(C)C`, the T/C is 100 % of control under setting [1], 105 % of control under setting [2] and 96 % of control under setting [3].
As to `Cc1ccc(S(=O)(=O)NC(=S)c2ccccc2C(=S)NS(=O)(=O)c2ccc(C)cc2)cc1`, the T/C (dose: 100.0 mg/kg/injection, schedule: Q01DX001 (ip), vehicle: saline with Tween-80) was 103 % of control; the T/C (dose: 200.0 mg/kg/injection, schedule: Q01DX001 (ip), vehicle: saline with Tween-80) was 110 % of control; the T/C (dose: 400.0 mg/kg/injection, schedule: Q01DX001 (ip), vehicle: saline with Tween-80) was 104 % of control.
Regarding `N#CC(C#N)=C1c2ccccc2C(=O)c2ccccc21`, the T/C (dose: 50.0 mg/kg/injection, schedule: Q01DX005 (ip), vehicle: Klucel (hydroxypropylcellulose) (HPC)) is 88 % of control; the T/C (dose: 100.0 mg/kg/injection, schedule: Q01DX005 (ip), vehicle: Klucel (hydroxypropylcellulose) (HPC)) is 88 % of control; the T/C (dose: 200.0 mg/kg/injection, schedule: Q01DX005 (ip), vehicle: Klucel (hydroxypropylcellulose) (HPC)) was 92 % of control.
With `O=C(O)C1CSC(c2ccc(Cl)cc2)N1` (stereo not given), the T/C was 95 % of control (dose: 50.0 mg/kg/injection, schedule: Q01DX009 (ip), vehicle: suspension in saline); 95 % of control (dose: 100.0 mg/kg/injection, schedule: Q01DX009 (ip), vehicle: suspension in saline); 95 % of control and 96 % of control (dose: 200.0 mg/kg/injection, schedule: Q01DX009 (ip), vehicle: suspension in saline).
As for `Cc1c(Br)sc2c1ccc1ccccc12`, the T/C by setting is: under setting [4], 101 % of control; under setting [5], 100 % of control; (dose: 200.0 mg/kg/injection, schedule: Q01DX009 (ip), vehicle: saline with Tween-80) 109 % of control.
Turning to `CCCCCc1nnc2n1N=C(c1ccc(Cl)cc1)CS2`, the T/C by setting is: under setting [1], 100 % of control; under setting [2], 92 % of control; under setting [3], 91 % of control.
Regarding `CC(C#N)(S(C)(=O)=O)S(=O)(=O)c1ccccc1` (stereo not given), the T/C by setting is: (dose: 1.56 mg/kg/injection, schedule: Q01DX001 (ip), vehicle: saline with Tween-80) 96 % of control; (dose: 3.12 mg/kg/injection, schedule: Q01DX001 (ip), vehicle: saline with Tween-80) 99 % of control; (dose: 6.25 mg/kg/injection, schedule: Q01DX001 (ip), vehicle: saline with Tween-80) 102 % of control.
For `CNC(=O)OCc1c2ccncc2c(C)c2c1[nH]c1ccccc12`, the T/C was 163 % of control (dose: 6.25 mg/kg/injection, schedule: Q04DX002 (ip), vehicle: saline with Tween-80); 150 % of control (dose: 12.5 mg/kg/injection, schedule: Q04DX002 (ip), vehicle: saline with Tween-80); 153 % of control and 167 % of control (dose: 25.0 mg/kg/injection, schedule: Q04DX002 (ip), vehicle: saline with Tween-80); 109 % of control (dose: 50.0 mg/kg/injection, schedule: Q04DX002 (ip), vehicle: saline with Tween-80).
Take `OCC12OCC(C=CC1O)O2` (stereo not given): the T/C (dose: 60.0 mg/kg/injection, schedule: Q01DX005 (ip), vehicle: saline) is 99 % of control; the T/C (dose: 120.0 mg/kg/injection, schedule: Q01DX005 (ip), vehicle: saline) was 91 % of control; the T/C (dose: 240.0 mg/kg/injection, schedule: Q01DX005 (ip), vehicle: saline) is 98 % of control.
Turning to `CC(C)=CCCC(C)(OC1OC(COC2OCC(O)C(O)C2O)C(O)C(O)C1O)C1CCC2(C)C1C(O)CC1C3(C)CCC(OC4OC(CO)C(O)C(O)C4OC4OC(CO)C(O)C(O)C4O)C(C)(C)C3CCC12C` (stereo not given), the T/C is 98 % of control (dose: 18.75 mg/kg/injection, schedule: Q01DX009 (ip), vehicle: Klucel (hydroxypropylcellulose) (HPC)); 100 % of control (dose: 37.5 mg/kg/injection, schedule: Q01DX009 (ip), vehicle: Klucel (hydroxypropylcellulose) (HPC)); 92 % of control (dose: 75.0 mg/kg/injection, schedule: Q01DX009 (ip), vehicle: Klucel (hydroxypropylcellulose) (HPC)); 92 % of control (dose: 150.0 mg/kg/injection, schedule: Q01DX009 (ip), vehicle: Klucel (hydroxypropylcellulose) (HPC)).
With `CN(C)CCC(C#N)(CCN(C)C)c1ccccc1`, the T/C reads like this: (dose: 50.0 mg/kg/injection, schedule: Q01DX005 (ip), vehicle: saline) 105 % of control; (dose: 100.0 mg/kg/injection, schedule: Q01DX005 (ip), vehicle: saline) 103 % of control; (dose: 200.0 mg/kg/injection, schedule: Q01DX005 (ip), vehicle: saline) 106 % of control.
For the molecule `O=C(CCl)c1cccnc1C(=O)O`, the T/C is 100 % of control (dose: 25.0 mg/kg/injection, schedule: Q01DX009 (ip), vehicle: saline sonified); 100 % of control (dose: 50.0 mg/kg/injection, schedule: Q01DX009 (ip), vehicle: saline sonified); 90 % of control (dose: 100.0 mg/kg/injection, schedule: Q01DX009 (ip), vehicle: saline sonified).
Consider `CN(C)C(=O)c1cccc(COc2ccc([N+](=O)[O-])cc2Cl)c1`, for which the T/C under setting [4] was 110 % of control and the T/C under setting [5] is 110 % of control.
Take `Clc1ccc(OCSCOc2ccc(Cl)cc2Cl)c(Cl)c1`: the T/C reads like this: (dose: 50.0 mg/kg/injection, schedule: Q01DX009 (ip), vehicle: Klucel (hydroxypropylcellulose) (HPC)) 106 % of control; (dose: 100.0 mg/kg/injection, schedule: Q01DX009 (ip), vehicle: Klucel (hydroxypropylcellulose) (HPC)) 99 % of control; (dose: 200.0 mg/kg/injection, schedule: Q01DX009 (ip), vehicle: Klucel (hydroxypropylcellulose) (HPC)) 101 % of control.
With `CCCC1(c2ccccc2)C(=O)NCNC1=O`, the T/C is, setting by setting: (dose: 20.0 mg/kg/injection, schedule: Q01DX005 (ip), vehicle: Klucel (hydroxypropylcellulose) (HPC)) 100 % of control; (dose: 40.0 mg/kg/injection, schedule: Q01DX005 (ip), vehicle: Klucel (hydroxypropylcellulose) (HPC)) 99 % of control and 109 % of control; (dose: 60.0 mg/kg/injection, schedule: Q01DX005 (ip), vehicle: Klucel (hydroxypropylcellulose) (HPC)) 100 % of control and 116 % of control; (dose: 120.0 mg/kg/injection, schedule: Q01DX005 (ip), vehicle: Klucel (hydroxypropylcellulose) (HPC)) 93 % of control and 95 % of control; (dose: 240.0 mg/kg/injection, schedule: Q01DX005 (ip), vehicle: Klucel (hydroxypropylcellulose) (HPC)) 92 % of control.
On to `Cc1cn2ccccc2c1-c1ccccc1`, for which the T/C by setting is: (dose: 50.0 mg/kg/injection, schedule: Q01DX005 (ip), vehicle: saline with Tween-80) 111 % of control; (dose: 100.0 mg/kg/injection, schedule: Q01DX005 (ip), vehicle: saline with Tween-80) 108 % of control; (dose: 200.0 mg/kg/injection, schedule: Q01DX005 (ip), vehicle: saline with Tween-80) 106 % of control.
`O=S(=O)(O)CCCCS(=O)(=O)O`: the T/C is, setting by setting: (dose: 50.0 mg/kg/injection, schedule: Q01DX009 (ip), vehicle: saline) 99 % of control; (dose: 100.0 mg/kg/injection, schedule: Q01DX009 (ip), vehicle: saline) 108 % of control; (dose: 200.0 mg/kg/injection, schedule: Q01DX009 (ip), vehicle: saline) 110 % of control.
